Key:
[1] = system: NQO1 activity in Hepa1c1c7 cells; assay: NAD(P)H: quinone oxidoreductase-1 (NQO1) enzyme induction assay (in vitro); type: cell-based, mouse; conditions: Mus musculus, Hepa-1c1c7, NQO1 activity with 400 nM test compound as a ratio from the base without compound, about 48 hr
Protocol: The NQO1 assay was performed based on a previous report (Methods in Enzymology 2004; 382: 243-258). Hepa1c1c7 cells (mouse hepatocyte cell line, ATCC, cat. no. CRL-2026) were cultured in D-MEM medium containing 10% FBS and 1% penicillin/streptomycin (5% CO2, 37° C.), and seeded into 96-well plates (Corning REF. 353072) at 1×10^4 cells/well. A portion of the wells were prepared with medium only for background measurement without seeding cells. The next day, 400 nM of the test compound (0.004% of the final concentration in DMSO) dissolved in DMSO was added thereto, and the wells were incubated for about 48 hr. A well without adding the test compound was prepared for base activity assay in part. […] After the medium was removed, 50 μL of the cell lysate was added and incubated at 37° C. for 10 minutes, followed by shaking at room temperature for 10 minutes. 200 μL of reaction solution was added thereto, and allowed to stand for 5 minutes at room temperature. 50 μL of the stop solution was added thereto, and absorbance was measured at 610 nm on a SpectraMax PLUS384 (Molecular devices) or […] Pharma Biomedical). The test results were analyzed in Excel, and the NQO1 activity upon addition of 400 nM of test compound was calculated as a ratio from the base without the compound. NQO1 activity ratio when test compound is added=(absorbance when test compound is added-absorbance of medium only)/(absorbance without addition of compound-absorbance of medium only) [numerical formula 2] The results of each test compound in this test are shown in the following Table 2 (A:5<NQO1 activity ratio, B:3<NQO1 activity ratio≤5).

[2] = target: binding between Nrf2 and Keap1 (Homo sapiens (Human), UniProt Q14145); assay: FP assay (in vitro): inhibition of Nrf2-Keap1 binding by fluorescence polarization; conditions: GST-fused human Keap1 (325-642) 20 nM, FITC-labeled Nrf2 peptide 10 nM, 2 hr at room temperature
Sequence of binding between Nrf2 and Keap1 (Q14145 325-624 limits assumed): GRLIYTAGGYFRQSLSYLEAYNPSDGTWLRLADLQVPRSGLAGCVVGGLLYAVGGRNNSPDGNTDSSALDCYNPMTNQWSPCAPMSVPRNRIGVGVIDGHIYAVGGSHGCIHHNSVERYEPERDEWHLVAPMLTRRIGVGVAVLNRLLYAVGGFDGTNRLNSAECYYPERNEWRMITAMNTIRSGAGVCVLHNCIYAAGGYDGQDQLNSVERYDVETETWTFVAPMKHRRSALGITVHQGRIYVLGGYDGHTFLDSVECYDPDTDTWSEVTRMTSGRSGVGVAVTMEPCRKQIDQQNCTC

IC50 [2] | SMILES | fold induction at 0.4 µM [1]
≤ 10 nM | CC[C@@H]1CN(Cc2cc([C@H](CC(=O)O)c3ccc4c(nnn4C)c3C)cc3c2CCC3)S(=O)(=O)c2cc(Cl)c(F)cc2O1 [Example 21, (3S)-3-(7-{[(4R)-8-Chloro-4-ethyl-7-fluoro-1,1-dioxido-3,4-dihydro-2H-5,1,2-benzoxathiazepin-2-yl]methyl}-2,3-dihydro-1H-inden-5-yl)-3-(1,4-dimethyl-1H-benzotriazol-5-yl)propanoic acid] | > 5
≤ 10 nM | CC[C@@H]1CN(Cc2cc([C@H](CC(=O)O)c3cc(Cl)c4c(nnn4C)c3C)cc3ccsc23)S(=O)(=O)c2cc(Cl)cnc2O1 [Example 30, (3S)-3-(7-Chloro-1,4-dimethyl-1H-benzotriazol-5-yl)-3-(7-{[(4R)-8-chloro-4-ethyl-1,1-dioxido-3,4-dihydro-2H-pyrido[2,3-b][1,4,5]oxathiazepin-2-yl]methyl}-1-benzothiophen-5-yl)propanoic acid] | 3 to 5
10 to 30 nM | Cc1c(C(CC(=O)O)c2cc3c(c(CN4CC(C)(C)Oc5ncccc5S4(=O)=O)c2)CCC3)ccc2c1nnn2C (stereo not drawn) [Example 34, 3-(1,4-Dimethyl-1H-benzotriazol-5-yl)-3-{7-[(4,4-dimethyl-1,1-dioxido-3,4-dihydro-2H-pyrido[2,3-b][1,4,5]oxathiazepin-2-yl)methyl]-2,3-dihydro-1H-inden-5-yl}propanoic acid] | > 5
≤ 10 nM | CC[C@@H]1CN(Cc2cc([C@@H](CC(=O)O)c3cc(C4CC4)c4c(nnn4C)c3C)cc3ccsc23)S(=O)(=O)c2cc(Cl)cnc2O1 [Example 37, (3R)-3-(7-{[(4R)-8-Chloro-4-ethyl-1,1-dioxido-3,4-dihydro-2H-pyrido[2,3-b][1,4,5]oxathiazepin-2-yl]methyl}-1-benzothiophen-5-yl)-3-(7-cyclopropyl-1,4-dimethyl-1H-benzotriazol-5-yl)propanoic acid] | 3 to 5
≤ 10 nM | CC[C@@H]1CN(Cc2cc([C@@H](c3ccc4c(nnn4C)c3C)C(C)(C)C(=O)O)cc3c2CCC3)S(=O)(=O)c2cc(Cl)cnc2O1 [Example 38, (3S)-3-(7-{[(4R)-8-Chloro-4-ethyl-1,1-dioxido-3,4-dihydro-2H-pyrido[2,3-b][1,4,5]oxathiazepin-2-yl]methyl}-2,3-dihydro-1H-inden-5-yl)-3-(1,4-dimethyl-1H-benzotriazol-5-yl)-2,2-dimethylpropanoic acid] | > 5
10 to 30 nM | CC[C@@H]1CN(Cc2cc([C@@H](CC(=O)O)c3cc(C4CC4)c4c(nnn4C)c3C)cc3c2CCC3)S(=O)(=O)c2cc(Cl)cnc2O1 [Example 39, (3R)-3-(7-{[(4R)-8-Chloro-4-ethyl-1,1-dioxido-3,4-dihydro-2H-pyrido[2,3-b][1,4,5]oxathiazepin-2-yl]methyl}-2,3-dihydro-1H-inden-5-yl)-3-(7-cyclopropyl-1,4-dimethyl-1H-benzotriazol-5-yl)propanoic acid] | 3 to 5

The remaining lines, values behind:

SMILES | IC50 [2] | fold induction at 0.4 µM [1]
CC[C@@H]1CN(Cc2cc([C@@H](CC(=O)O)c3ccc4c(nnn4C)c3C)cc3c2CCC3)S(=O)(=O)c2cc(Cl)c(F)cc2O1 [Example 20, (3R)-3-(7-{[(4R)-8-Chloro-4-ethyl-7-fluoro-1,1-dioxido-3,4-dihydro-2H-5,1,2-benzoxathiazepin-2-yl]methyl}-2,3-dihydro-1H-inden-5-yl)-3-(1,4-dimethyl-1H-benzotriazol-5-yl)propanoic acid] | 10 to 30 nM | > 5
CC[C@@H]1CN(Cc2cc([C@@H](CC(=O)O)c3ccc4c(nnn4C)c3C)cc3ccsc23)S(=O)(=O)c2cc(Cl)c(F)cc2O1 [Example 22, (3R)-3-(7-{[(4R)-8-Chloro-4-ethyl-7-fluoro-1,1-dioxido-3,4-dihydro-2H-5,1,2-benzoxathiazepin-2-yl]methyl}-1-benzothiophen-5-yl)-3-(1,4-dimethyl-1H-benzotriazol-5-yl)propanoic acid] | ≤ 10 nM | > 5
CC[C@@H]1CN(Cc2cc([C@H](CC(=O)O)c3ccc4c(nnn4C)c3C)cc3ccsc23)S(=O)(=O)c2cc(Cl)c(F)cc2O1 [Example 23, (3S)-3-(7-{[(4R)-8-Chloro-4-ethyl-7-fluoro-1,1-dioxido-3,4-dihydro-2H-5,1,2-benzoxathiazepin-2-yl]methyl}-1-benzothiophen-5-yl)-3-(1,4-dimethyl-1H-benzotriazol-5-yl)propanoic acid] | ≤ 10 nM | > 5
CC[C@@H]1CN(Cc2cc(C(CC(=O)O)c3ccc4c(nnn4C)c3C)cc3c2CCC3)S(=O)(=O)c2cccnc2O1 (stereo partly drawn) [Example 24, 3-(1,4-Dimethyl-1H-benzotriazol-5-yl)-3-(7-{[(4R)-4-ethyl-1,1-dioxido-3,4-dihydro-2H-pyrido[2,3-b][1,4,5]oxathiazepin-2-yl]methyl}-2,3-dihydro-1H-inden-5-yl)propanoic acid] | 10 to 30 nM | > 5
CC[C@@H]1CN(Cc2cc(C(CC(=O)O)c3ccc4c(nnn4C)c3C)cc3c2CCC3)S(=O)(=O)c2cc(C(F)(F)F)cnc2O1 (stereo partly drawn) [Example 25, 3-(1,4-Dimethyl-1H-benzotriazol-5-yl)-3-(7-{[(4R)-4-ethyl-1,1-dioxido-8-(trifluoromethyl)-3,4-dihydro-2H-pyrido[2,3-b][1,4,5]oxathiazepin-2-yl]methyl}-2,3-dihydro-1H-inden-5-yl)propanoic acid] | 10 to 30 nM | > 5
CC[C@@H]1CN(Cc2cc(C(CC(=O)O)c3ccc4c(nnn4C)c3C)cc3c2CCC3)S(=O)(=O)c2ccc3ccccc3c2O1 (stereo partly drawn) [Example 26, 3-(1,4-Dimethyl-1H-benzotriazol-5-yl)-3-(7-{[(2R)-2-ethyl-5,5-dioxido-2,3-dihydro-4H-naphtho[1,2-b][1,4,5]oxathiazepin-4-yl]methyl}-2,3-dihydro-1H-inden-5-yl)propanoic acid] | 30 to 100 nM | > 5
CC[C@@H]1CN(Cc2cc(C(CC(=O)O)c3ccc4c(nnn4C)c3Cl)cc3c2CCC3)S(=O)(=O)c2cc(Cl)cnc2O1 (stereo partly drawn) [Example 29, 3-(7-{[(4R)-8-Chloro-4-ethyl-1,1-dioxido-3,4-dihydro-2H-pyrido[2,3-b][1,4,5]oxathiazepin-2-yl]methyl}-2,3-dihydro-1H-inden-5-yl)-3-(4-chloro-1-methyl-1H-benzotriazol-5-yl)propanoic acid] | ≤ 10 nM | > 5
CC[C@@H]1CN(Cc2cc([C@@H](CC(=O)O)c3cc(Cl)c4c(nnn4C)c3C)cc3ccsc23)S(=O)(=O)c2cc(Cl)cnc2O1 [Example 31, (3R)-3-(7-Chloro-1,4-dimethyl-1H-benzotriazol-5-yl)-3-(7-{[(4R)-8-chloro-4-ethyl-1,1-dioxido-3,4-dihydro-2H-pyrido[2,3-b][1,4,5]oxathiazepin-2-yl]methyl}-1-benzothiophen-5-yl)propanoic acid] | ≤ 10 nM | > 5
CC[C@@H]1CN(Cc2cc([C@@H](CC(=O)O)c3cc(OC(F)F)c4c(nnn4C)c3C)cc3ccsc23)S(=O)(=O)c2cc(Cl)cnc2O1 [Example 32, (3R)-3-(7-{[(4R)-8-Chloro-4-ethyl-1,1-dioxido-3,4-dihydro-2H-pyrido[2,3-b][1,4,5]oxathiazepin-2-yl]methyl}-1-benzothiophen-5-yl)-3-[7-(difluoromethoxy)-1,4-dimethyl-1H-benzotriazol-5-yl]propanoic acid] | ≤ 10 nM | > 5
CC[C@@H]1CN(Cc2cc([C@H](CC(=O)O)c3cc(C4CC4)c4c(nnn4C)c3C)cc3c2CCC3)S(=O)(=O)c2cc(Cl)cnc2O1 [Example 40, (3S)-3-(7-{[(4R)-8-Chloro-4-ethyl-1,1-dioxido-3,4-dihydro-2H-pyrido[2,3-b][1,4,5]oxathiazepin-2-yl]methyl}-2,3-dihydro-1H-inden-5-yl)-3-(7-cyclopropyl-1,4-dimethyl-1H-benzotriazol-5-yl)propanoic acid] | 10 to 30 nM | 3 to 5
CC[C@@H]1CN(Cc2cc([C@H](CC(=O)O)c3cc(C4CC4)c4c(nnn4C)c3C)cc3ccsc23)S(=O)(=O)c2cc(Cl)cnc2O1 [Example 41, (3S)-3-(7-{[(4R)-8-Chloro-4-ethyl-1,1-dioxido-3,4-dihydro-2H-pyrido[2,3-b][1,4,5]oxathiazepin-2-yl]methyl}-1-benzothiophen-5-yl)-3-(7-cyclopropyl-1,4-dimethyl-1H-benzotriazol-5-yl)propanoic acid] | ≤ 10 nM | > 5
Cc1c([C@H](CC(=O)O)c2cc3c(c(CN4CC5(CC5)Oc5ncc(Cl)cc5S4(=O)=O)c2)CCC3)ccc2c1nnn2C [Example 42, (3R)-3-{7-[(8′-Chloro-1′,1′-dioxido-spiro[cyclopropane-1,4′-pyrido[2,3-b][1,4,5]oxathiazepine]-2′(3′H)-yl)methyl]-2,3-dihydro-1H-inden-5-yl}-3-(1,4-dimethyl-1H-benzotriazol-5-yl)propanoic acid] | ≤ 10 nM | > 5

From patent publication US20250092064A1, “BENZOTRIAZOLE COMPOUND” (DAIICHI SANKYO COMPANY, LIMITED, priority 2022, published 2025)
